Assay [1] concerns 4T1-Luc. As to the kind of experiment: Induction of DNA damage in mouse 4T1-Luc cells xenografted in BALB/C mouse assessed as increase in gamma-H2AX level at 30 to 60 mg/kg, po qd treated for 15 days by IHC analysis. To be noted: dose 30-60 mg/kg, time 15.0 day. The class given is functional, organism-based.
The subject of assay [2] is 4T1. As to the kind of experiment: Induction of DNA damage in 4T1 cells assessed as increase in gamma-H2AX level incubated for 2 hrs by Western blot analysis. The class given is functional, cell-based. To be noted: Mus musculus, dose <= 3.0 µM. Background: In western blotting, separated proteins are transferred to a membrane and probed.
Assay [3] deals with MCF7. As to the kind of experiment: Induction of apoptosis in human MCF7 cells assessed as increase in cleaved PARP level upto 3 uM incubated for 48 hrs by Western blot analysis. The class given is functional, cell-based.
Assay [4] has as its system MCF7. As to the kind of experiment: Induction of apoptosis in human MCF7 cells assessed as necrotic cells at 0.5 uM incubated for 48 hrs by Annexin V-FITC/PI staining based flow cytometry (reference value: 0.03 %). Format: functional. On the technique in general: A flow cytometer gives signals particle by particle.
Assay [5] relates to AGS. As to the kind of experiment: Antiproliferative activity against human AGS cells assessed as inhibition of cell viability upto 10 uM incubated for 72 hrs by MTT assay. The class given is functional, cell-based.
The test system of assay [6] is A549. As to the kind of experiment: Antiproliferative activity against human A549 cells assessed as inhibition of cell viability upto 10 uM incubated for 72 hrs by MTT assay. The class given is functional, cell-based. On the technique in general: Tetrazolium dyes change colour on reduction, which living cells bring about.
The test system of assay [7] is 4T1. As to the kind of experiment: Antiproliferative activity against 4T1 cells assessed as inhibition of cell viability upto 10 uM by MTT assay. To be noted: Mus musculus, time 24-72 hrs, TDE = time-dependent effect. The class given is functional, cell-based.
Assay [8] concerns Tyrosine-protein kinase ABL1 (Homo sapiens), P00519 [T315I]. As to the kind of experiment: Inhibition of human Abl T315I mutant at 0.1 uM by KINOMEscan assay relative to control.
Assay [9] deals with Angiopoietin-1 receptor (Homo sapiens) (UniProt Q02763). As to the kind of experiment: Inhibition of human Tie2 at 1 uM by KINOMEscan assay relative to control.
Angiopoietin-1 receptor (Homo sapiens), sequence (Q02763 whole entry): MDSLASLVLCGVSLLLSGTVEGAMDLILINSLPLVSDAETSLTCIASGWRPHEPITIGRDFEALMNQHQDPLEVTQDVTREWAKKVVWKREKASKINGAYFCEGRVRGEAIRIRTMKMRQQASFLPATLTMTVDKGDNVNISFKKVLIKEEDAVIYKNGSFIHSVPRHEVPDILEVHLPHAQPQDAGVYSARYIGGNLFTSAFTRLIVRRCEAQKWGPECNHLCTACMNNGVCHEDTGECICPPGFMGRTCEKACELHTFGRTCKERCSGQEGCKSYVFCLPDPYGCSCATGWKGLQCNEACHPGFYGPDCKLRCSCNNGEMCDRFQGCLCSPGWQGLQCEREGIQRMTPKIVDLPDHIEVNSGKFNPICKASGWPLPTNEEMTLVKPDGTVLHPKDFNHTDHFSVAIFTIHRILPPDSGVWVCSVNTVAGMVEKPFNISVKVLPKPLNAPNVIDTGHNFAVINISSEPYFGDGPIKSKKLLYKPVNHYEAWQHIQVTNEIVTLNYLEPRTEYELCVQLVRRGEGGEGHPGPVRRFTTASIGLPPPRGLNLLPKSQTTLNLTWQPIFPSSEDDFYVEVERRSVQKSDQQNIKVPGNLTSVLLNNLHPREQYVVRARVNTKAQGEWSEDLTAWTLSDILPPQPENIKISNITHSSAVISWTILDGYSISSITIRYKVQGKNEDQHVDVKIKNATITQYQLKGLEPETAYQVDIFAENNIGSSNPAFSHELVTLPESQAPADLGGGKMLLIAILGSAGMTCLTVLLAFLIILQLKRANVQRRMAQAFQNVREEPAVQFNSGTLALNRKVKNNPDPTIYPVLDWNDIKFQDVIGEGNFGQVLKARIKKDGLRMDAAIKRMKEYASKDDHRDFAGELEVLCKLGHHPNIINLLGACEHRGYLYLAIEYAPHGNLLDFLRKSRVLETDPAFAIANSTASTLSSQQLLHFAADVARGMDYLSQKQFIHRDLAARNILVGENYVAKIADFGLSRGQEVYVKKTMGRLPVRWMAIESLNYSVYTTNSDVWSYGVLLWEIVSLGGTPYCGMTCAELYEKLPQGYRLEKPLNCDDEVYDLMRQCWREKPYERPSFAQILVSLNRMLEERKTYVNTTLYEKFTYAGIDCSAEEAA
Assay [10] deals with Tyrosine-protein kinase JAK2 (Homo sapiens) (UniProt O60674). As to the kind of experiment: Inhibition of human JAK2 at 1 uM by KINOMEscan assay relative to control.
Tyrosine-protein kinase JAK2 (Homo sapiens), sequence (O60674 whole entry): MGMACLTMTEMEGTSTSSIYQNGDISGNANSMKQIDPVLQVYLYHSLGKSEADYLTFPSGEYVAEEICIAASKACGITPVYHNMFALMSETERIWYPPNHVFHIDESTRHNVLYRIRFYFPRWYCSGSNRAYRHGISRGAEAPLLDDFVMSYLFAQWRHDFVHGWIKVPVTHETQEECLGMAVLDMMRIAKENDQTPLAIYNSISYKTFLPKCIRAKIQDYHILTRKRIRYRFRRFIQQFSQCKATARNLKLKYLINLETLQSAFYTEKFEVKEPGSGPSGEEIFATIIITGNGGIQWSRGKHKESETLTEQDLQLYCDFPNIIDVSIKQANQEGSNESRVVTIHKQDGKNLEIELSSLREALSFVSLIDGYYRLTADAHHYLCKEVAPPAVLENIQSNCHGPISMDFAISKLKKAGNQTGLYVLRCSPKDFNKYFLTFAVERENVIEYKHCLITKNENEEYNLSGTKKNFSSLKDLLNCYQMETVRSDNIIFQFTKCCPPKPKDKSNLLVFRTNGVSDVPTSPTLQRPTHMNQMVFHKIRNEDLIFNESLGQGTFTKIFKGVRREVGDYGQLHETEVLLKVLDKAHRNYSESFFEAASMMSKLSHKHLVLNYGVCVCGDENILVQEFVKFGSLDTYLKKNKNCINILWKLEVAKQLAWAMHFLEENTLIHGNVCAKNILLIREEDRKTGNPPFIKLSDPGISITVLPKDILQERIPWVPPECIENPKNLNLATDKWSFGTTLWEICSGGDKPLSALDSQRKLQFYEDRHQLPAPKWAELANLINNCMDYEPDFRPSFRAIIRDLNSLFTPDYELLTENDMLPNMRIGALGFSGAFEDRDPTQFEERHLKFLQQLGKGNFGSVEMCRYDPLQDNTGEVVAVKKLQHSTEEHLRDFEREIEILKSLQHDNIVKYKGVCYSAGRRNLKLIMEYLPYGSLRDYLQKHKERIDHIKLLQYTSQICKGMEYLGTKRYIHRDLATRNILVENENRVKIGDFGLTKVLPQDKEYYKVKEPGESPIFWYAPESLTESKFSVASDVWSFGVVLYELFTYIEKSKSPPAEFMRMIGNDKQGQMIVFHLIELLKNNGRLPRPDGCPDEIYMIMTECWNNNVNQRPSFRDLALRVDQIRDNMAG

Activity calls are given as the source filed them. No cut-off for these calls is given here.

A word on the inhibition: it is how much of the control response was suppressed. `CN1CCN(c2ccc(Nc3nc(-n4nc(N)c5ccccc54)c4cc[nH]c4n3)cc2)CC1`: the result in assay [1] and in assay [3] was Active. The Activity result in assay [2] is “Dose-Dependent Effect”; in [4] it was 0.17%. The inhibition entry in assay [5] and in assay [6] was “Active” each time. For the same compound, the inhibition result in assay [7] is “Tde”; in [8] it was 40%; in assay [9] it was 92%; in assay [10], 95%.

The values above are taken from ChEMBL document CHEMBL5385847, “Design, synthesis and biological evaluation of a new class of 7H-pyrrolo[2,3-d]pyrimidine derivatives as Mps1 inhibitors for the treatment of breast cancer” (Eur J Med Chem, 2023).
